# Measured values reported in PubChem BioAssay AID1996.
# Conditions: buffer; pH 7.4; 200.0 µM
row,Structure (SMILES),solubility kinetic
1,COc1ccccc1-c1c(C#N)c(N)nc2c1CCC2,5 µg/mL
2,COc1ccc(NC(=S)NCc2ccc(F)cc2)c(OC)c1,> 48.1 µg/mL
3,Cc1ccc2[nH]c(C(F)(F)F)cc(=O)c2c1,33.5 µg/mL
4,O=c1c([N+](=O)[O-])cccn1Cc1cccc(Cl)c1,> 39.7 µg/mL
5,Cc1nc(-c2ccc([N+](=O)[O-])cc2)nc2[nH]ccc(=O)c12,0.9 µg/mL
6,Cc1cccc(Oc2nc(-c3ccncc3)nc3ccccc23)c1,< 0.2 µg/mL
7,CCc1ccc(S(=O)(=O)N2CCN(c3ncccn3)CC2)cc1,1.7 µg/mL
8,CC(=O)N1CCC[C@H]1C(=O)O,> 23.6 µg/mL
9,O=C(O/N=C/c1ccc2c(c1)OCO2)c1ccc([N+](=O)[O-])cc1,0.9 µg/mL
10,CCOc1ncccc1C(=O)NCc1ccccc1Cl,33.1 µg/mL
11,CSc1nc(C)cc(Oc2ccc(OCC(N)=O)nn2)n1,> 46.1 µg/mL
12,O=C1NC(C(F)(F)F)(C(F)(F)F)N=C2SC=CN12,41.6 µg/mL
13,Clc1ccc(OCCn2cnc(Cl)c2Cl)cc1,21.1 µg/mL
14,COc1ccc(-c2cc3cc(OC)c(OC)cc3c(C)n2)cc1C,< 0.7 µg/mL
15,Cc1ccc(C(=O)O/N=C(\c2ccccc2)c2ccncc2)cc1,0.6 µg/mL
16,CCCCc1c(O)nc(SCC(=O)N2CCCCC2)[nH]c1=O,> 48.8 µg/mL
17,O=c1[nH]c(-c2ccccc2)cnc1-c1ccccc1,0.4 µg/mL
18,CN(C)C1(CN=Cc2cc(Cl)cc([N+](=O)[O-])c2O)CCCCC1,> 51 µg/mL
19,Cc1cnc(C(=O)N2CCN(c3ccc(C(F)(F)F)cn3)CC2)cn1,48 µg/mL
20,Cc1cc(-c2ccccc2)c2c(n1)sc1c(O)cc(=O)[nH]c12,> 46.3 µg/mL
21,COC(=O)c1c(O)cc(=O)n2c1CCCCC2,33.3 µg/mL
22,COc1ccc(S(=O)(=O)N2CCN(C(=O)C3CC3)CC2)cc1,48.6 µg/mL
23,Cc1ccccc1C(=O)NC(=S)NC1CCS(=O)(=O)C1 (stereo not given),> 46.9 µg/mL
24,O=C(Nc1ccccc1C(=O)N1CCCCC1)c1ccco1,> 44.8 µg/mL
25,CC(C)(C)CC(=O)O/N=C(\N)c1ccncc1,> 35.3 µg/mL
26,COc1ccc(NC(=O)CNCc2ccc(Cl)cc2)cc1S(=O)(=O)N1CCOCC1.O=C(O)C(=O)O,> 81.6 µg/mL
27,O=C1c2ccc([N+](=O)[O-])cc2S(=O)(=O)N1Cc1ccccc1,8.3 µg/mL

row,Structure (SMILES),solubility kinetic
1,COc1ccccc1N1CCN(C(=O)Cc2ccc(Cl)cc2)CC1,50.6 µg/mL
2,O=C(c1ccc(F)cc1)c1ccc(-c2ccc(F)cc2)nc1,0.9 µg/mL
3,CC(=O)C1=C(c2ccccc2)NC(=O)NC1c1cccs1 (stereo not given),28.2 µg/mL
4,CC(=O)N/C(=C/c1ccc2c(c1)OCO2)C(=O)N1CCOCC1,45 µg/mL
5,Cc1ccc(NC(=S)N2CCCC2)cc1Cl,12.5 µg/mL
6,Clc1nc(NC2CCCC2)nc(N2CCOCC2)n1,5.1 µg/mL
7,CC(C(=O)O/N=C(\N)c1cccnc1)c1ccc([N+](=O)[O-])cc1 (stereo not given),41.2 µg/mL
8,O=C(Nc1ccccc1O)c1csc2c1CCCC2,2.2 µg/mL
9,Nc1c2c(nn1-c1ccccc1)CCC2,> 29.9 µg/mL
10,N#Cc1ccc(S(=O)(=O)NC2CCN(Cc3ccccc3)CC2)cc1,42.5 µg/mL
11,O=C(CSc1ccccc1F)NC(=O)c1ccccc1Br,> 55.2 µg/mL
12,CCC(C(=O)N/N=C(\C)c1cccnc1)c1ccccc1 (stereo not given),> 42.2 µg/mL
13,O=C(O)c1c(Cl)nc2ccccn12,> 29.5 µg/mL
14,CCN(C(=O)/C=C/c1ccccc1)C1CCCCC1,> 38.6 µg/mL
15,O=C(O)Cc1csc(-c2ccc(F)cc2)n1,32.2 µg/mL
16,Cc1ccsc1CNCCc1ccccc1F,27.1 µg/mL
17,Cc1ccnc(NC2CCCCC2)c1,25.3 µg/mL
18,CN(C)CC(O)CN(c1ccccc1)c1ccccc1 (stereo not given),> 40.6 µg/mL
19,CCN1C(=O)c2cccc3c(N)ccc1c23,> 31.8 µg/mL
20,CC(NC(=O)c1ccco1)c1ccc(-n2ccnc2)cc1 (stereo not given),> 42.2 µg/mL
21,Cc1cc(C)c(S(=O)(=O)c2ccc(Cl)cc2)c(=O)[nH]1,19.8 µg/mL
22,CN1c2ccccc2C(=O)NC1c1ccc([N+](=O)[O-])s1 (stereo not given),31.2 µg/mL
23,CC(C)N(c1ccccc1)c1ccc(NC(=S)NCCN(C)C)cc1,44 µg/mL
24,O=C1CN(S(=O)(=O)c2ccccc2)CCN1,> 36 µg/mL
25,O=C(CS(=O)(=O)c1ccc(F)cc1)N1CCOCC1,> 43.1 µg/mL
26,C#CC(C)(C)NC(=O)c1ccc(-c2ccccc2F)cc1,< 0.6 µg/mL
27,COc1ccc(CN2CCN(C(=O)c3ccc4c(c3)CCC4)CC2)cc1OC,39.5 µg/mL

row,Structure (SMILES),solubility kinetic
1,CSCC(=O)NC1CCCN(C2Cc3ccccc3C2)C1 (stereo not given),44.1 µg/mL
2,O=C1CNC(=S)N1Cc1cccc(Cl)c1,> 36.1 µg/mL
3,Cn1c(-c2nonc2N)nc2ccccc21,4.3 µg/mL
4,O=C(O)CCCCCNC(=O)/C=C/c1ccco1,26.2 µg/mL
5,Cc1c(F)cccc1NC(=O)CCCCCC1NC(=O)NC1C (stereo not given),46.7 µg/mL
6,CC(=O)COc1nc2c(c(-c3ccco3)c1C#N)CCc1ccccc1-2,1.7 µg/mL
7,O=[N+]([O-])c1ccc(C[n+]2cccc3ccccc32)cc1.[Cl-],41 µg/mL
8,CN(C)CCCN1C(=O)C2CCc3[nH]c4ccccc4c3C2C1=O (stereo not given),> 48.8 µg/mL
9,O=C(Nc1ccccc1N1CCCC1)c1ccccc1F,19.8 µg/mL
10,COc1ccc(C(=O)NC2CCCc3ccccc32)cc1 (stereo not given),6.5 µg/mL
11,CCOC(=O)N1CCN(c2nc3ccccn3c(=O)c2C=O)CC1,> 49.6 µg/mL
12,C#CCOC(=O)CN1C(=O)c2cccc3cccc(c23)C1=O,< 0.6 µg/mL
13,COc1cc2c(cc1OC)CC(=O)NC=C2,> 32.9 µg/mL
14,Cc1ccccc1CN1CCN(C(=O)CC(C)C)CC1,27 µg/mL
15,Nc1nc2c(ncn2C2C[C@H](O)[C@@H](CO)O2)c(=O)[nH]1 (stereo not given in full),> 40.1 µg/mL
16,COc1ccc(/C=C2\SC(N3CCCCC3)=NC2=O)cc1,1.3 µg/mL
17,CCCCNS(=O)(=O)c1ccc2nc(SCC(N)=O)[nH]c2c1,> 51.4 µg/mL
18,Cc1c(Cl)cccc1NC(=S)NCC(O)c1ccccc1 (stereo not given),46.7 µg/mL
19,COc1ccc(/C=C(/NC(=O)c2ccccc2)C(=O)N2CCCC2)cc1,> 52.6 µg/mL
20,CC1CCN(C(=O)COC(=O)Cn2cnc3ccccc32)CC1,> 47.3 µg/mL
21,COc1ccc(C(=O)N(c2ccccn2)C2CCCCC2)c(OC)c1,49.9 µg/mL
22,CCOc1ccc2[nH]c3c(=O)n(CCC4=CCCCC4)cnc3c2c1,10.7 µg/mL
23,Cc1ccc(Oc2ccc(OCC(=O)NC3CCS(=O)(=O)C3)cc2)cc1 (stereo not given),7.6 µg/mL
24,Cc1nn(C)c(C)c1/C=C/C(=O)O,> 27 µg/mL
25,O=C(COc1cccnc1[N+](=O)[O-])Nc1ccc(Cl)cc1F,4.6 µg/mL

# The next lines start with the values.
row,solubility kinetic,Structure (SMILES)
1,> 43 µg/mL,Cc1cc(C)c(NC(=O)CCc2c(C)noc2C)c(C)c1
2,9.2 µg/mL,COC(=O)/C=C1/SC(=NC(=O)c2ccc(OC)cc2)NC1=O
3,< 0.4 µg/mL,CCC(=O)c1cn(CC(=O)Nc2cc(C)ccc2C)c2ccccc12
4,> 48.1 µg/mL,CCOc1ncccc1C(=O)OCC(=O)NCc1cccs1
5,> 61.4 µg/mL,COc1ccc(-c2csc(NC(=O)c3ccc(C(C)(C)C)cc3)c2C(=O)O)cc1
6,> 39.9 µg/mL,Cc1cccc(NS(=O)(=O)c2c(C)noc2C)c1
7,> 49.3 µg/mL,COc1ccc(NC(=O)N[C@@H](CCSC)C(=O)O)cc1OC
8,> 37.7 µg/mL,CC1CC1C(=O)OCC(=O)Nc1cccc(F)c1 (stereo not given)
9,15.6 µg/mL,CSc1ccccc1C(=O)OCC(=O)Nc1cccnc1Cl
10,6.1 µg/mL,Cc1ccc(C)c(OCC(=O)Nc2ccc(N3CCOCC3)cc2)c1
11,10.7 µg/mL,COC(=O)Cc1cc(=O)[nH]c(/N=C(\N)Nc2cccc(C)c2)n1
12,36.8 µg/mL,O=C(CCN1C(=O)C2C3CCC(C3)C2C1=O)Nc1ccc(F)cc1 (stereo not given)
13,3.7 µg/mL,CCOC(=O)c1sc(NC(=O)c2ccc3nc[nH]c3c2)nc1C
14,8.3 µg/mL,Cc1cccc(C)c1NC(=O)c1ccc2c(c1)CCN2S(C)(=O)=O
15,0.6 µg/mL,Cc1ccc(C(=O)CSc2nc(C(C)C)nc3ccccc23)cc1
16,> 39.7 µg/mL,CCCNC(=O)CCn1c(=S)oc2ccccc21
17,> 52.9 µg/mL,CCOc1ccc(NC(=O)Cc2c(C(=O)O)n(C)c3ccccc23)cc1
18,> 38.9 µg/mL,CCOc1ccc(NC(=O)CCn2ccnc2)cc1
19,> 50.3 µg/mL,CCOc1ccccc1NC(=O)Nc1cccc(S(N)(=O)=O)c1
20,< 0.3 µg/mL,COc1ccc(NC(=O)Nc2ccc3c(c2)CCC3)c(OC)c1
21,15.3 µg/mL,CC1CCCC(C)N1C(=O)COC(=O)c1ccc2ccccc2n1 (stereo not given)

row,solubility kinetic,Structure (SMILES)
1,2.9 µg/mL,COc1cccc(-c2onc3ccc(C(C)=O)cc23)c1
2,6.6 µg/mL,Cc1cccc(NC(=O)Cn2c(=O)oc3ccccc32)c1C
3,< 0.6 µg/mL,Cc1ccc(NC(=O)c2cc3ccccc3o2)cc1Cl
4,> 55.7 µg/mL,CC(=O)c1c(OCC(=O)N(C)C2CCCCC2)ccc2c(C)cc(=O)oc12
5,> 43.5 µg/mL,Cc1ccc(C(=O)OCc2nc3ccsc3c(=O)[nH]2)o1
6,< 0.7 µg/mL,O=C(CCC(=O)c1ccc(Br)cc1)Nc1ccc(F)cc1
7,7.4 µg/mL,COc1cccc(C(=O)Nc2cccc(NC(=O)c3ccccc3Cl)c2)c1
8,18.4 µg/mL,COc1ccc(NC(=O)CCS(=O)(=O)c2ccc(Cl)cc2)cc1
9,18.6 µg/mL,CCc1ccc(NC(=O)Cn2cnc3c(=O)n(C)c(=O)n(C)c32)cc1
10,> 60.1 µg/mL,CC(C)CN(C(=O)CCNC(=O)c1ccc(Cl)cc1)C1CCS(=O)(=O)C1 (stereo not given)
11,44 µg/mL,Cc1ccc(-c2noc(CCCC(=O)NC3CCCC3)n2)cc1
12,6.7 µg/mL,CCCC(=O)Nc1ccc(C(=O)COC(=O)c2cc(C)oc2C)cc1
13,42 µg/mL,COc1ccc(C(=O)c2c[nH]c(C(=O)N=CN(C)C)c2)cc1
14,2.2 µg/mL,Cc1ccc(F)c(NC(=O)c2c(-c3ccccc3)noc2C)c1
15,1.2 µg/mL,CCC(=O)Nc1ccc(NC(=O)c2oc3ccccc3c2C)cc1
16,7.1 µg/mL,COc1cc(/C=C/C(=O)OCC(=O)NC(=O)NCc2ccco2)ccc1OC(F)F
17,> 50.3 µg/mL,CCCCN(C)C1CCN(C(=S)Nc2ccc(OC)cc2)CC1
18,> 59.5 µg/mL,NS(=O)(=O)c1cccc(NC(=O)COC(=O)CCC(=O)c2cccs2)c1
19,31.7 µg/mL,Cc1ccc(NC(=O)c2cnccn2)cc1C
20,60.1 µg/mL,O=C(O)CCC(=O)Nc1ccc(-c2nc3ccc(C(=O)c4ccccc4)cc3[nH]2)cc1
